# From US9562031B1, “Phenethyldihydrobenzodioxolones and methods of use” (Sequoia Sciences, Inc., priority 2015, dated 2017)
# Read-outs that look alike come from different tables or passages of the source.
# Columns and labels:
# [1] = tested on: M14 (amelanotic melanoma) cells; experiment: antiproliferation assay (72 h, CELLTITER 96), M14; type: cell-based, human; details: Homo sapiens
# Experimental: (§1) All of the compounds shown in Table 3-Table 8 below were prepared synthetically as described in EXAMPLE I. The compounds were tested for their ability to inhibit the proliferation of human cancer cells in vitro as described in the following paragraph. Table 3-Table 8 list the IC50 values in the M14 and NCI-H460 human cancer cell lines. IC50 is defined as the concentration of compound necessary to achieve 50% of the maximum growth inhibition.
# (§2) For the antiproliferation assay, NCI-H460 (large cell lung carcinoma) or M14 (amelanotic melanoma) cells were grown in RPMI-1640 with 10% FBS supplemented with L-glutamine and HEPES. Cells were seeded into 96-well plates at 5×10^2 to 5×10^4 cells/well and allowed to adhere overnight; the medium was then removed. A stock solution of test compound in DMSO was diluted in medium to generate a series of working solutions. Aliquots (100 μl) of the working solutions were then added to the appropriate test wells to expose cells to the final concentrations of compound in a total volume of 100 μl. Seven different concentrations were tested, with 2-5 wells per concentration. Camptothecin was used as a positive control; wells containing vehicle without compound were used as negative controls. Plates were kept for 72 h in a 37° C., 5% CO2 incubator. After incubation, viable cells were detected with the CELLTITER 96 AQueous Non-Radioactive Cell Proliferation Assay (Promega), and IC50 values were determined using GraphPad Prism 5 software.
# [2] = tested on: NCI-H460 (large cell lung carcinoma) cells; experiment: antiproliferation assay (72 h, CELLTITER 96), NCI-H460; type: cell-based, human; details: Homo sapiens, read-out: NCI-H460 IC50
# Experimental: as §1, §2
SMILES,IC50 ([1]; Table 7) [µM],"IC50 ([2]; NCI-H460, Table 7) [µM]",further results
"COc1cc(F)c(CC(C)[C@]23C[C@H](C)C(=O)C=C2OCO3)cc1F (stereo partly drawn) [Compound 56, (6S,7aR)-7a-(1-(2,5-difluoro-4-methoxyphenyl)propan-2-yl)-6-methyl-7,7a-dihydrobenzo[d][1,3]dioxol-5(6H)-one]",0.14,0.43,–
CC[C@H]1C[C@]2([C@@H](C)Cc3cc(F)c(OC)cc3F)OCOC2=CC1=O [Compound 57],0.14,0.2,–
CC[C@H]1C[C@]2([C@H](C)Cc3cc(F)c(OC)cc3F)OCOC2=CC1=O [Compound 58],0.29,0.44,–
CCC[C@H]1C[C@]2([C@@H](C)Cc3cc(O)c(OC)cc3F)OCOC2=CC1=O [Compound 59],0.058,0.17,–
CCC[C@H]1C[C@]2([C@H](C)Cc3cc(O)c(OC)cc3F)OCOC2=CC1=O [Compound 60],0.0059,0.067,–
"C#CC[C@H]1C[C@]2([C@@H](C)Cc3ccc(OC)cc3F)OCOC2=CC1=O [Compound 62, (6S,7aR)-7a-((S)-1-(2-fluoro-4-methoxyphenyl)propan-2-yl)-6-(prop-2-yn-1-yl)-7,7a-dihydrobenzo[d][1,3]dioxol-5(6H)-one]",0.2,0.073,–
"C=C(F)C[C@H]1C[C@]2([C@@H](C)Cc3cc(F)c(OC)cc3F)OCOC2=CC1=O [Compound 64, (6R,7aR)-7a-((S)-1-(2,5-difluoro-4-methoxyphenyl)propan-2-yl)-6-(2-fluoroallyl)-7,7a-dihydrobenzo[d][1,3]dioxol-5(6H)-one]",0.14,0.22,–
"COC[C@H]1C[C@]2([C@@H](C)Cc3cc(O)c(OC)cc3F)OCOC2=CC1=O [Compound 65, (6R,7aR)-7a-((S)-1-(2-fluoro-5-hydroxy-4-methoxyphenyl)propan-2-yl)-6-(methoxymethyl)-7,7a-dihydrobenzo[d][1,3]dioxol-5(6H)-one]",0.64,1.2,–
"COc1cc(F)c(C[C@H](C)[C@]23C[C@H](Cc4ccccc4)C(=O)C=C2OCO3)cc1O [Compound 66, (6S,7aR)-6-benzyl-7a-((S)-1-(2-fluoro-5-hydroxy-4-methoxyphenyl)propan-2-yl)-7,7a-dihydrobenzo[d][1,3]dioxol-5(6H)-one]",1.6,2.6,–
"C/C=C/C[C@H]1C[C@]2([C@@H](C)Cc3ccc(OC)cc3F)OCOC2=CC1=O [Compound 67, (6S,7aR)-6-((E)-but-2-en-1-yl)-7a-((S)-1-(2-fluoro-4-methoxyphenyl)propan-2-yl)-7,7a-dihydrobenzo[d][1,3]dioxol-5(6H)-one]",0.21,0.25,–
"COc1ccc(C[C@H](C)[C@]23C[C@H](CC=C(F)F)C(=O)C=C2OCO3)c(F)c1 [Compound 68, (6S,7aR)-6-(3,3-difluoroallyl)-7a-((S)-1-(2-fluoro-4-methoxyphenyl)propan-2-yl)-7,7a-dihydrobenzo[d][1,3]dioxol-5(6H)-one]",0.86,0.82,–
"COc1cc(F)c(C[C@H](C)[C@]23C[C@H](CCCF)C(=O)C=C2OCO3)cc1O [Compound 69, (6S,7aR)-7a-((S)-1-(2-fluoro-5-hydroxy-4-methoxyphenyl)propan-2-yl)-6-(3-fluoropropyl)-7,7a-dihydrobenzo[d][1,3]dioxol-5(6H)-one]",0.57,0.51,–
"CCC[C@H]1C[C@]2([C@@H](C)Cc3ccc(OC)c(OC)c3)OCOC2=CC1=O [Compound 70, (6S,7aR)-7a-((S)-1-(3,4-dimethoxyphenyl)propan-2-yl)-6-propyl-7,7a-dihydrobenzo[d][1,3]dioxol-5(6H)-one]",7.4,> 4,–
"C=CC[C@H]1C[C@]2(CCc3ccc(OC)c(OC)c3)OCOC2=CC1=O [Compound 72, (6S,7aS)-6-allyl-7a-(3,4-dimethoxyphenethyl)-7,7a-dihydrobenzo[d][1,3]dioxol-5(6H)-one]",–,–,"IC50 ([1]; Table 8): 2 µM; IC50 ([2]; NCI-H460, Table 8): 3.2 µM"
"C=CC[C@H]1C[C@]2([C@@H](C)Cc3ccc(OC)c(OC(=O)N(C)C)c3)OCOC2=CC1=O [Compound 73, 5-((S)-2-((3aR,5S)-5-allyl-6-oxo-3a,4,5,6-tetrahydrobenzo[d][1,3]dioxol-3a-yl)propyl)-2-methoxyphenyl dimethylcarbamate]",–,–,"IC50 ([1]; Table 4): > 20 µM; IC50 ([2]; NCI-H460, Table 4): > 20 µM"
"C/C=C/[C@H]1C[C@]2([C@H](C)Cc3cc(O)c(OC)cc3F)OCOC2=CC1=O [Compound 74, (6R,7aR)-7a-((R)-1-(2-fluoro-5-hydroxy-4-methoxyphenyl)propan-2-yl)-6-((E)-prop-1-en-1-yl)-7,7a-dihydrobenzo[d][1,3]dioxol-5(6H)-one]",0.12,0.29,–
"C/C=C/[C@H]1C[C@]2([C@@H](C)Cc3cc(O)c(OC)cc3F)OCOC2=CC1=O [Compound 75, (6R,7aR)-7a-((S)-1-(2-fluoro-5-hydroxy-4-methoxyphenyl)propan-2-yl)-6-((E)-prop-1-en-1-yl)-7,7a-dihydrobenzo[d][1,3]dioxol-5 (6H)-one]",0.51,0.86,–
"COc1cc(F)c(C[C@H](C)[C@]23C[C@H](CCSC)C(=O)C=C2OCO3)cc1O [Compound 76, (6R,7aR)-7a-((S)-1-(2-fluoro-5-hydroxy-4-methoxyphenyl)propan-2-yl)-6-(2-(methylthio)ethyl)-7,7a-dihydrobenzo[d][1,3]dioxol-5(6H)-one]",0.3,0.45,–
"CC[C@H](C)[C@H]1C[C@]2([C@@H](C)Cc3cc(O)c(OC)cc3F)OCOC2=CC1=O [Compound 77, (6R,7aR)-6-((S)-sec-butyl)-7a-((S)-1-(2-fluoro-5-hydroxy-4-methoxyphenyl)propan-2-yl)-7,7a-dihydrobenzo[d][1,3]dioxol-5(6H)-one]",0.11,0.55,–
"COCC[C@H]1C[C@]2([C@@H](C)Cc3cc(O)c(OC)cc3F)OCOC2=CC1=O [Compound 78, (6S,7aR)-7a-((S)-1-(2-fluoro-5-hydroxy-4-methoxyphenyl)propan-2-yl)-6-(2-methoxyethyl)-7,7a-dihydrobenzo[d][1,3]dioxol-5(6H)-one]",0.19,0.27,–
"C=C(Cl)C[C@H]1C[C@]2([C@@H](C)Cc3ccc(OC)cc3F)OCOC2=CC1=O [Compound 79, (6R,7aR)-6-(2-chloroallyl)-7a-((S)-1-(2-fluoro-4-methoxyphenyl)propan-2-yl)-7,7a-dihydrobenzo[d][1,3]dioxol-5(6H)-one]",1.3,2.5,–
"C=C(C)C[C@H]1C[C@]2([C@@H](C)Cc3cc(O)c(OC)cc3F)OCOC2=CC1=O [Compound 80, (6S,7aR)-7a-((S)-1-(2-fluoro-5-hydroxy-4-methoxyphenyl)propan-2-yl)-6-(2-methylallyl)-7,7a-dihydrobenzo[d][1,3]dioxol-5(6H)-one]",0.22,0.37,–
"C=CC[C@H]1C[C@]2([C@@H](C)Cc3cc(F)c(OC)cc3F)O[C@H](C)OC2=CC1=O [Compound 82, (2R,6S,7aR)-6-allyl-7a-((S)-1-(2,5-difluoro-4-methoxyphenyl)propan-2-yl)-2-methyl-7,7a-dihydrobenzo[d][1,3]dioxol-5(6H)-one]",–,–,"IC50 ([1]; Table 8): > 20 µM; IC50 ([2]; NCI-H460, Table 8): 5.2 µM"
"C=CC[C@H]1C[C@]2([C@@H](C)Cc3ccc4c(c3)OCO4)OCOC2=CC1=O [Compound 83, (6S,7aR)-6-allyl-7a-((S)-1-(benzo[d][1,3]dioxol-5-yl)propan-2-yl)-7,7a-dihydrobenzo[d][1,3]dioxol-5(6H)-one]",–,–,"IC50 ([1]; Table 8): 0.65 µM; IC50 ([2]; NCI-H460, Table 8): 0.39 µM"
